From patent US12122761B2, “2-azaspiro[3.4]octane derivatives as M4 agonists” (NOVARTIS AG, priority 2019, dated 2024)
pEC50: −log10 of the molar value.

Legend:
[1] = target: T1, human cloned CHRM2 receptor (M2_CHO cells) (Homo sapiens, UniProt P08172); assay: CHRM2 Ca++ Flux Assay (agonist mode, FDSS 7000EX); type: cell-based; conditions: Percent Activity measured to EC100 of Carbachol; for Emax: read-out: M2 FDSS PA
T1 construct: expressed in transfected cells; host or cells: CHO-K1
T1 sequence (P08172 1-466): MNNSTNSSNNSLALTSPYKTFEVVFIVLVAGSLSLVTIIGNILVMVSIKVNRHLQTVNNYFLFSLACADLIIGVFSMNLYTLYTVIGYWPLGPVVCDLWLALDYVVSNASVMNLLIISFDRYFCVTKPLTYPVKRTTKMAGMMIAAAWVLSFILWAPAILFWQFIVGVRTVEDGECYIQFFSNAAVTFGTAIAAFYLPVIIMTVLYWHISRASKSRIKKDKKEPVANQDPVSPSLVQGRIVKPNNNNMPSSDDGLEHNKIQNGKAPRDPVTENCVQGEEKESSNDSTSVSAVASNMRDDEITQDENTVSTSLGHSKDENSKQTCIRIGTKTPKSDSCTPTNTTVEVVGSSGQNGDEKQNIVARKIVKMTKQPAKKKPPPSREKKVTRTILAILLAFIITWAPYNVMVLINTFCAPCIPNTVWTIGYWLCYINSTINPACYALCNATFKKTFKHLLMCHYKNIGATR
Method: (§1) The above examples were characterized by measuring the intracellular mobilization of Ca++ ions caused by signaling events mediated by the receptor. The Intra-cellular Calcium flux levels were captured by the highly sensitive Ca++ indicator, Calcium Assay Kit (BD Biosciences, Catalog Number 640178). The fluorescent activity from all receptors were monitored by the fluorescent imager, FDSS 7000EX (Hamamatsu) over a span of 3 minutes.
CHO-K1 cells stably expressing the human cloned CHRM2 receptor (M2_CHO cells) were grown and maintained in a monolayer culture with F12/HAM (Life Technologies) supplemented with 10% Fetal Bovine Serum, 1× Pen-Strep, and 0.4 mg/mL Geneticin in a humidified atmosphere (5% CO2) at 37° C. The cultures were grown to 80-9 0% confluency in T150 flasks (Corning) and washed with 1×DPBS and lifted with 0.05% Trypsin (Life Technologies). The cells were then spun (1K rpm, 3 minutes) and frozen using Recovery Cell Culture Freezing Media (Gibco Technologies). Cells were stored in liquid nitrogen and thawed a day before the assay.
Prior to the day of the assay, stable M2 CHO cells were thawed and plated on Greiner 384 well TC treated plate at a density of 12K cells/well and kept overnight in a humidified atmosphere (5% CO2) at 37° C. The following day, the cells were loaded with Ca^++ dye (BD Biosciences) using Loading Buffer (HBSS +Ca/+Mg, 20 mM HEPES, 2.5 mM Probenecid) and placed back in cell incubator for a minimum of 1 hour and maximum of 2 hours. After incubation, the dye was replaced with Assay Buffer (HBSS −Ca/−Mg, 20 mM HEPES, 2.5 mM Probenecid) supplemented with 20 μM ATP (Sigma Aldrich) and kept at room temperature for 60 minutes prior before running on cell imager. The FDSS 7000EX (Hamamatsu) was used to acquire Ca^++ traces from cells in response to compound treatment and the data was used to generate dose response curves in agonist mode. All compounds were serially diluted in DMSO then prepared in Assay Buffer for Ca^++ flux studies. The dose response curves were generated from the average of triplicate wells obtained from each data point and used a non-linear regression of four parameter dose response algorithm. The Percent Activity (PA) was measured to EC100 of Carbachol.

[2] = target: T2, human cloned CHRM4 receptor (M4_CHO cells) (Homo sapiens, UniProt P08173); assay: CHRM4 Ca++ Flux Assay (agonist mode, FDSS 7000EX); type: cell-based; conditions: for M4 FDSS PA / Emax: Percent Activity; for pEC50: geometric mean if tested more than once, read-out: M4 FDSS EC50; for Emax: read-out: M4 FDSS PA
T2 construct: expressed in transfected cells; host or cells: CHO-K1
T2 sequence (P08173 1-479): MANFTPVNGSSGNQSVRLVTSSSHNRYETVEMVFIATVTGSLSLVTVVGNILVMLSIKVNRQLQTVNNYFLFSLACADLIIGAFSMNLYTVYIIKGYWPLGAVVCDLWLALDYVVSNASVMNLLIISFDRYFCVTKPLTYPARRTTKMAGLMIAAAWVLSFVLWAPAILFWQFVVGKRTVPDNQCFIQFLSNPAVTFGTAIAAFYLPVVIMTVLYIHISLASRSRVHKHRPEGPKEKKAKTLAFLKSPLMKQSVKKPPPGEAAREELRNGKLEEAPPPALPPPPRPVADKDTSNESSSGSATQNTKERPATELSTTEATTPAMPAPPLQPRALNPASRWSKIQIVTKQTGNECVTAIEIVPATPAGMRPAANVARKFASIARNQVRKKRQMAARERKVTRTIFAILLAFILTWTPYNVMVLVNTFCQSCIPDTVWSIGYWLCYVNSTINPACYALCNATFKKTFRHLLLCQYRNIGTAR
Method: as §1
CHO-K1 cells stably expressing the human cloned CHRM4 receptor (M4_CHO cells) were grown and maintained in a monolayer culture with F12/HAM (Life Technologies) supplemented with 10% Fetal Bovine Serum, 1× Pen-Strep, and 0.4 mg/mL Geneticin in a humidified atmosphere (5% CO2) at 37° C. The cultures were grown to 80-90% confluency in T150 flasks (Corning) and washed with 1×DPBS then lifted with 0.05% Trypsin (Life Technologies). The cells were harvested in growth media then spun (1K rpm, 3 minutes) and cryopreserved using Recovery Cell Culture Freezing Media (Gibco Technologies). Cells were stored in liquid nitrogen and thawed a day before the assay.
Prior to the day of the assay, stable M4_CHO cells were thawed and plated on 384 well black walled clear bottom TC treated plates (Greiner Cat #781091) at 12K cells/well using F12/HAM Media supplemented with 10% FBS (Life Technologies) and kept overnight in a humidified atmosphere (5% CO2) at 37° C. The next day, cells were loaded with […] Ca^++ dye (BD Biosciences) using Loading Buffer (HBSS +Ca/+Mg, 20 mM HEPES, 2.5 mM Probenecid) and placed back in cell incubator for a minimum of 1 hour. After incubation, the dye was replaced with 45 μL Assay Buffer (HBSS −Ca/−Mg, 20 mM HEPES, 2.5 mM Probenecid) supplemented with 20 μM ATP (Sigma Aldrich) and kept at room temperature in the dark for 60 minutes before running on a cell imager. The FDSS 7000EX (Hamamatsu) was used to capture Ca^++ traces for a span of 3 minutes from cells treated with 11 point dose of compound in triplicate in order to generate dose response curves in agonist mode. All compounds were serially diluted in DMSO then prepared in Assay Buffer for Ca^++ flux studies. The dose response curves were generated from the average of triplicate wells obtained from each data point and used a non-linear regression of four parameter dose response algorithm. The Percent Activity (PA) was measured to EC100 of Carbachol.

Row | SMILES | M2 FDSS PA [1] | M4 FDSS PA [2] | pEC50 [2] | Emax [1] | Emax [2]
1 | Cc1ncc(COc2ccccc2C2CCN([C@@H]3CCC4(C3)CN(C(=O)C3(F)CC3)C4)CC2)o1 (single isomer, unassigned) [Example 7V, (R)-(1-fluorocyclopropyl)(6-(4-(2-((2-methyloxazol-5-yl)methoxy)phenyl)piperidin-1-yl)-2-azaspiro[3.4]octan-2-yl)methanone or (S)-(1-fluorocyclopropyl)(6-(4-(2-((2-methyloxazol-5-yl)methoxy)phenyl)piperidin-1-yl)-2-azaspiro[3.4]octan-2-yl)methanone] | 0% | 23% | 6.45 | – | –
2 | O=C(N1CC2(CC[C@@H](N3CCC(c4ccccc4OC4CCOCC4)CC3)C2)C1)C1(F)CC1 (single isomer, unassigned) [Example 9F, (R)-(1-fluorocyclopropyl)(6-(4-(2-((tetrahydro-2H-pyran-4-yl)oxy)phenyl)piperidin-1-yl)-2-azaspiro[3.4]octan-2-yl)methanone or (S)-(1-fluorocyclopropyl)(6-(4-(2-((tetrahydro-2H-pyran-4-yl)oxy)phenyl)piperidin-1-yl)-2-azaspiro[3.4]octan-2-yl)methanone] | 0% | 47% | 6.81 | – | –
3 | Cc1coc(N2CC3(CC[C@@H](N4CCC(c5ccc(F)cc5OCC(C)(C)O)CC4)C3)C2)n1 [Example 3N, (R)-1-(5-fluoro-2-(1-(2-(4-methyloxazol-2-yl)-2-azaspiro[3.4]octan-6-yl)piperidin-4-yl)phenoxy)-2-methylpropan-2-ol] | – | – | < 4.60 | 0% | 0%
4 | CCOc1ccccc1C1CCN([C@@H]2CCC3(C2)CN(C(=O)C2(F)CC2)C3)CC1 (single isomer, unassigned) [Example 7S, (R)-(6-(4-(2-ethoxyphenyl)piperidin-1-yl)-2-azaspiro[3.4]octan-2-yl)(1-fluorocyclopropyl)methanone or (S)-(6-(4-(2-ethoxyphenyl)piperidin-1-yl)-2-azaspiro[3.4]octan-2-yl)(1-fluorocyclopropyl)methanone] | 0% | 26% | 5.58 | – | –

These reach a higher pEC50 [2]. Values come first.

Row | M2 FDSS PA [1] | M4 FDSS PA [2] | pEC50 [2] | Emax [1] | Emax [2] | SMILES
5 | 18% | 71% | 8.10 | – | – | COc1ccccc1C1CCN([C@@H]2CCC3(C2)CN(c2ncns2)C3)CC1 (single isomer, unassigned) [Example 10Q, (R)-5-(6-(4-(2-methoxyphenyl)piperidin-1-yl)-2-azaspiro[3.4]octan-2-yl)-1,2,4-thiadiazole or (S)-5-(6-(4-(2-methoxyphenyl)piperidin-1-yl)-2-azaspiro[3.4]octan-2-yl)-1,2,4-thiadiazole]
6 | 0% | 54% | 7.96 | – | – | O=C(N1CC2(CC[C@@H](N3CCC(c4ccccc4OCCC(F)(F)F)CC3)C2)C1)C1(F)CC1 (single isomer, unassigned) [Example 7AA, (R)-(1-fluorocyclopropyl)(6-(4-(2-(3,3,3-trifluoropropoxy)phenyl)piperidin-1-yl)-2-azaspiro[3.4]octan-2-yl)methanone or (S)-(1-fluorocyclopropyl)(6-(4-(2-(3,3,3-trifluoropropoxy)phenyl)piperidin-1-yl)-2-azaspiro[3.4]octan-2-yl)methanone]
7 | 0% | 64% | 9.00 | – | – | COc1ccc(Cl)cc1C1CCN([C@H]2CCC3(C2)CN(C(=O)C2(F)CC2)C3)CC1 (single isomer, unassigned) [Example 8B, (S)-(6-(4-(5-chloro-2-methoxyphenyl)piperidin-1-yl)-2-azaspiro[3.4]octan-2-yl)(1-fluorocyclopropyl)methanone or (R)-(6-(4-(5-chloro-2-methoxyphenyl)piperidin-1-yl)-2-azaspiro[3.4]octan-2-yl)(1-fluorocyclopropyl)methanone]
8 | 0% | 42% | 8.05 | – | – | O=C(N1CC2(CC[C@@H](N3CCC(c4ccccc4OCC4CC4)CC3)C2)C1)C1(F)CC1 (single isomer, unassigned) [Example 7O, (R)-(6-(4-(2-(cyclopropylmethoxy)phenyl)piperidin-1-yl)-2-azaspiro[3.4]octan-2-yl)(1-fluorocyclopropyl)methanone or (R)-(6-(4-(2-(cyclopropylmethoxy)phenyl)piperidin-1-yl)-2-azaspiro[3.4]octan-2-yl)(1-fluorocyclopropyl)methanone]
9 | 0% | 66% | > 9.40 | – | – | Cc1nc(COc2ccccc2C2CCN([C@@H]3CCC4(C3)CN(C(=O)C3(F)CC3)C4)CC2)no1 (single isomer, unassigned) [Example 7X, (R)-(1-fluorocyclopropyl)(6-(4-(2-((5-methyl-1,2,4-oxadiazol-3-yl)methoxy)phenyl)piperidin-1-yl)-2-azaspiro[3.4]octan-2-yl)methanone or (S)-(1-fluorocyclopropyl)(6-(4-(2-((5-methyl-1,2,4-oxadiazol-3-yl)methoxy)phenyl)piperidin-1-yl)-2-azaspiro[3.4]octan-2-yl)methanone]
10 | – | – | 7.59 | 35% | 50% | COc1ccccc1C1CCN([C@@H]2CCC3(C2)CN(c2ccc(Cl)nn2)C3)CC1 [Example 5N, (R)-2-(6-chloropyridazin-3-yl)-6-(4-(2-methoxyphenyl)piperidin-1-yl)-2-azaspiro[3.4]octane]
